Data: the supplement of paper PMC10627819

Columns and labels:
S. aureus Newman = test: Bliss interaction score (quartile over a dose matrix) (fitness difference); higher = more antagonism (negative = synergy)
Method in brief: (§1)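 The Bliss score subtracts expected fitness, the product of the single-drug fitness values, from observed fitness. Fitness is plate-normalised OD595 at entry into stationary phase, relative to the robust no-drug mean and capped at 1, with single-drug fitness inferred from combinations. Summaries are quartiles over technical, biological and donor/recipient replicates.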

S. pneumoniae D39V = test: as above
Method in brief: as §1

S. aureus DSM 20231 = test: as above
Method in brief: as §1

B. subtilis 168 [1] = test: as above
Method in brief: as §1

B. subtilis 168 [2] = test: fitness (endpoint OD595 vs no drug) (fraction); higher = more growth
Method in brief: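 Fitness was defined as the optical density at the transition into stationary phase relative to the robust mean of no-drug control wells. Values were capped at 1. Cultures were started at OD595 0.01 in 384-well plates (30 µl, or 55 µl for S. pneumoniae) in TSB, LB Lennox or CY at 37 °C. OD595 was recorded every 30 min over 14 h, with the first reading subtracted as background.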
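For Bliss interaction score (quartile over a dose matrix) in this document: first quartile when negative (synergy) and third quartile when positive (antagonism).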

CO[C@@H]1[C@@H](OC(N)=O)[C@@H](O)[C@H](Oc2ccc3c(O)c(NC(=O)c4ccc(O)c(CC=C(C)C)c4)c(=O)oc3c2C)OC1(C)C [Novobiocin] + C[n+]1ccc(-c2cc[n+](C)cc2)cc1 [Paraquat]
Conditions	Bliss interaction score
B. subtilis 168 [1]	0.0704
S. aureus DSM 20231	0.0456
S. aureus Newman	0.0868
S. pneumoniae D39V	0.0614

fitness, B. subtilis 168 [2]
Conditions	first compound 0.0125 µg/mL	first compound 0.025 µg/mL	first compound 0.05 µg/mL
partner 1.25 µg/mL	0.937	0.942	0.976
partner 2.5 µg/mL	0.939	0.956	0.999
partner 5 µg/mL	0.855	0.832	0.912

fitness, B. subtilis 168 [2], one replicate
Conditions	first compound 0.125 µg/mL	first compound 0.25 µg/mL	first compound 0.5 µg/mL
partner 1.25 µg/mL	0.908	≥ 1	0.664
partner 2.5 µg/mL	0.951	0.878	0.517
partner 5 µg/mL	0.836	0.819	0.452

CO[C@@H]1[C@@H](OC(N)=O)[C@@H](O)[C@H](Oc2ccc3c(O)c(NC(=O)c4ccc(O)c(CC=C(C)C)c4)c(=O)oc3c2C)OC1(C)C [Novobiocin] + Cc1cc(NS(=O)(=O)c2ccc(N)cc2)no1 [Sulfamethoxazol]
Conditions	Bliss interaction score
B. subtilis 168 [1]	0.0447
S. aureus DSM 20231	0.0483
S. aureus Newman	0.041
S. pneumoniae D39V	-0.0959

fitness, B. subtilis 168 [2]
Conditions	first compound 0.0125 µg/mL	first compound 0.025 µg/mL	first compound 0.05 µg/mL
partner 1 µg/mL	0.932	0.959	0.951
partner 2 µg/mL	0.968	0.955	0.876
partner 4 µg/mL	0.966	0.989	0.92

fitness, B. subtilis 168 [2], one replicate
Conditions	first compound 0.05 µg/mL	first compound 0.1 µg/mL	first compound 0.125 µg/mL	first compound 0.2 µg/mL	first compound 0.25 µg/mL	first compound 0.5 µg/mL
partner 0.5 µg/mL	0.972	≥ 1	–	≥ 1	–	–
partner 1 µg/mL	–	0.864	0.999	0.81	0.897	0.49
partner 2 µg/mL	–	0.814	0.927	0.885	0.838	0.507
partner 4 µg/mL	–	–	≥ 1	–	0.909	0.482

CO[C@@H]1[C@@H](OC(N)=O)[C@@H](O)[C@H](Oc2ccc3c(O)c(NC(=O)c4ccc(O)c(CC=C(C)C)c4)c(=O)oc3c2C)OC1(C)C [Novobiocin] + Cc1onc(-c2ccccc2)c1C(=O)N[C@@H]1C(=O)N2[C@@H]1SC(C)(C)[C@@H]2C(=O)O [Oxacillin]
Conditions	Bliss interaction score
B. subtilis 168 [1]	0.0603
S. aureus DSM 20231	0.0609
S. aureus Newman	-0.0672
S. pneumoniae D39V	-0.0758

fitness, B. subtilis 168 [2]
Conditions	first compound 0.0125 µg/mL	first compound 0.025 µg/mL	first compound 0.05 µg/mL
partner 0.002 µg/mL	0.988	0.974	≥ 1
partner 0.004 µg/mL	0.949	0.926	≥ 1
partner 0.008 µg/mL	0.946	0.895	≥ 1

fitness, B. subtilis 168 [2], one replicate
Conditions	first compound 0.05 µg/mL	first compound 0.1 µg/mL	first compound 0.125 µg/mL	first compound 0.2 µg/mL	first compound 0.25 µg/mL	first compound 0.5 µg/mL
partner 0.0078 µg/mL	–	–	0.997	–	0.968	0.547
partner 0.0155 µg/mL	–	–	0.952	–	0.948	0.498
partner 0.031 µg/mL	–	–	0.848	–	0.798	0.289
partner 0.075 µg/mL	0.673	0.672	–	0.734	–	–
partner 0.15 µg/mL	0.0266	0.0276	–	0.0165	–	–
partner 0.3 µg/mL	0.0465	0.036	–	0.0154	–	–

CN[C@@H]1[C@H](O[C@H]2[C@H](O[C@H]3[C@H](O)[C@@H](O)[C@H](N=C(N)N)[C@@H](O)[C@@H]3N=C(N)N)O[C@@H](C)[C@]2(O)C=O)O[C@@H](CO)[C@H](O)[C@H]1O [Streptomycin] + COc1cc(Cc2cnc(N)nc2N)cc(OC)c1OC [Trimethoprim]
Conditions	Bliss interaction score
B. subtilis 168 [1]	-0.252
S. aureus DSM 20231	-0.0639
S. aureus Newman	0.0902
S. pneumoniae D39V	-0.175

fitness, B. subtilis 168 [2], one replicate
Conditions	partner 0.1 µg/mL	partner 0.125 µg/mL	partner 0.2 µg/mL	partner 0.4 µg/mL
first compound 2 µg/mL	0.713	0.605	0.493	0.253
first compound 4 µg/mL	0.0534	0.0554	0.0535	0.0313
first compound 8 µg/mL	0.0279	0.0253	0.0392	0.025

fitness, B. subtilis 168 [2]
Conditions	partner 0.25 µg/mL	partner 0.5 µg/mL	partner 1 µg/mL	partner 2 µg/mL
first compound 2 µg/mL	0.416	0.103	0.0483	0.0464
first compound 4 µg/mL	0.0303	0.0474	0.0558	0.0621
first compound 8 µg/mL	0.0127	0.0322	0.0309	0.0326
